Experimental findings from patent publication US6809091B1, “Substances capable of inducing apoptosis” (Takara Bio Inc., priority 1998, dated 2004) are described below.

For assay [1], the system named is HL-60 cells. Kind of assay: observation of apoptosis under an optical microscope. It is filed as cell-based, human. The following applies: HL-60, 24 hours. The method, then: (1) HL-60 cells (ATCC CCL-240) incubated at 37° C. in an RPMI 1640 medium (manufactured by BioWhittaker) containing 10% of fetal bovine serum (manufactured by JRH) treated at 56° C. for 30 minutes were suspended in an RPMI 1640 medium to make the concentration 2.5×10^5 cells/5 ml.
To 5 ml of this suspension were added 10 μl of 12.5 mM, 25 mM, 50 mM or 100 mM of a 70% ethanolic solution of 4,5-dihydroxy-2-pentenal prepared in Example 6-(1), 0.05 mM, 0.5 mM, 5 mM or 50 mM of a 70% ethanolic solution of 4-hydroxy-2-cyclopenten-1-[…] prepared in Example 6-(1), 5 mM, 10 mM or 20 mM of a 70% ethanolic solution of 4-(9-adeninyl)-2-cyclopenten-1-one prepared in Example 4-(4), 2.5 mM, 5 mM, 15 mM or 25 mM of a 70% ethanolic solution of 4-(9-guaninyl)-2-cyclopenten-1-one prepared in Example 4-(5), 75 mM, 150 mM or 300 mM of a 70% ethanolic solution of 1,5-epoxy-1-hydroxy-3-penten-2-one prepared in Example 5-(2) or 5 mM, 25 mM or 50 mM of a 70% ethanolic solution of 2-(trans-3,4-dihydroxy-1-butenyl)-4-(trans-2-formylvinyl)-1,3-dioxolane prepared in Example 6-(2) followed by incubating at 37° C. in the presence of 5% carbon dioxide gas for 24 hours.
Incidentally, such phenomena were not noted in the incubated cells to which […] of 70% ethanolic solution were added used as a control.

Assay [2] concerns HL-60 cells. The assay can be described thus: measurement of apoptosis cells using FACScan. It is filed as cell-based, human. The following applies: HL-60, 24 hours and 48 hours. The method, then: (2) HL-60 cells which were incubated on an RPMI 1640 medium containing 10% of fetal bovine serum processed at 56° C. for 30 minutes were suspended in an RPMI 1640 medium to make 2.5×10^5 cells/5 ml. […]

For assay [3], the system named is HL-60 cells. Kind of assay: Trypan Blue staining, survival rate. The assay is classed as cell-based. The following applies: Homo sapiens, HL-60, 24 hours, concentration where survival rate becomes 50%, read-out: Survival Rate50. The procedure: (3) The cells which were incubated for 24 hours by the same manner as in Example 9-(2) were stained with 0.4% Trypan Blue and observed under an optical microscope, numbers of viable cells which were not stained and of dead cells which were stained in blue were measured, concentration (survival rate50) of each of the samples where survival rate becomes 50% was determined and the result is given in Table 1.

The subject of assay [4] is HL-60 cells. Kind of assay: analysis of fragmentation of DNA. It is filed as cell-based, human. The method, then:
(2) HL-60 cells which were incubated on an RPMI 1640 medium containing 10% of fetal bovine serum processed at 56° C. for 30 minutes were suspended in an RPMI 1640 medium to make 2.5×10^5 cells/5 ml.
To 5 ml the suspension were added 10 μl of 12.5 mM, 25 mM, 50 mM or 100 mM of a 70% ethanolic solution of 4,5-dihydroxy-2-pentenal, 0.05 mM, 0.5 mM, 5 mM or 50 mM of a 70% ethanolic solution of 4-hydroxy-2-cyclopenten-1-one, 5 mM, 10 mM or 20 mM of a 70% ethanolic solution of 4-(9-adeninyl)-2-cyclopenten-1-one prepared in Example 4-(4), 2.5 mM, 5 mM, 15 mM or 25 mM of a 70% ethanolic solution of 4-(9-guaninyl)-2-cyclopenten-1-one prepared in Example 4-(5) 75 mM, 150 mM or 300 mM of a 70% ethanolic solution of 1,5-epoxy-1-hydroxy-3-penten-2-one prepared in Example 5-(2) or 5 mM, 25 mM or 50 mM of a 70% ethanolic solution of 2-(trans-3,4-dihydroxy-1-butenyl)-4-(trans-2-formylvinyl)-1,3-dioxolane prepared in Example 6-(2) followed by incubating at 37° C. in the presence of 5% of carbon dioxide gas for 24 hours and 48 hours and the resulting cells were subjected to a measurement of apoptosis cells using FACScan by a method mentioned in pages 129-130 of “Experimental Protocol Series—Apoptosis Experiment Protocol” which was an extra issue of “Saibo Kogaku (Cell Technology)” (published by Shujunsha in 1994) and also to a measurement of analysis of fragmentation of DNA by a method mentioned in page 61-63 of “Biomanual UP Series—New Experimental Methods for Apoptosis” (published by Yodosha in 1995).

The test system of assay [5] is human promyelocytic leukemia HL-60. Kind of assay: MTT method: cell growth suppressing / apoptosis-inducing activity. The assay is classed as cell-based. The following applies: for apoptosis-inducing activity of the non-heated solution: HL-60, 48 hours, MTT method; for apoptosis-inducing activity / cancer cell growth suppressing activity: HL-60, MTT method of Example 1, 48 hours. The procedure: Heated and non-heated substances of each of them were sterilized by a membrane filter of 0.22 μm to prepare samples for the apoptosis-inducing activity. Those samples were diluted with aseptic distilled water to an extent of 2-, 4-, 8-, 16- and 32-fold, their activity for suppressing the cell growth to the human promyelocytic leukemia HL-60 was measured as follows and their intensity or the apoptosis-inducing activity was compared.
Thus, 10 μl of each of the diluted solutions or 10 μl of aseptic distilled water were placed in a well of a 96-well microtiter plate. Then 90 μl of an RPMI 1640 medium (manufactured by Nissui) containing 10% of fetal bovine serum (manufactured by Gibco) which contained 5000 HL-60 cells (ATCC CCL240) were added thereto and an incubation was carried out at 37° C. for 48 hours in the presence of 5% carbon dioxide gas. After observing the shape of the cells under an optical microscope, 10 μl of a phosphate-buffered aqueous saline solution containing 5 mg/ml of 3-(4,5-dimethylthiazol-2-yl)-2,5-diphenyltetrazolium bromide (MTT; manufactured by Sigma), an incubation was continued for four hours more and state of growth of cells and formation of formazan produced in the cells were observed under a microscope. Further, 100 μl of 2-propanol containing 0.04N HCl were added thereto followed by well stirring and the absorbance at 590 nm was measured and used as a degree of growth of cells (an MTT method).
The solvent of the fraction was appropriately evaporated to substitute with a 50% aqueous solution of ethanol and the activity for suppressing the growth of cancer cells was measured by an MTT method mentioned in Example 1 except that the sample was diluted to a two-fold series using a 50% aqueous solution of ethanol and 2 μl of each of the diluted solutions or 2 μl of a 50% aqueous solution of ethanol were placed in a well of a flat-bottom 96-well microplate. Time for incubation was 16 hours.
(In general: Tetrazolium assays rely on reduction of a dye to a coloured formazan, in cell work by metabolically active cells.)

Structures are written as SMILES. pIC50: −log10 of the molar value. Bounds are passed on as bounds.

With `O=C1C=CCOC1O` (centres unmarked) [1,5-epoxy-1-hydroxy-3-penten-2-one], in assay [1], the “final concentration at which aggregation of nuclei, reduction in size of the cells and formation of apoptic body were confirmed” value was ≥ 625 µM. The “final concentration at which apoptosis cells were confirmed” value in assay [2] is ≥ 600 µM. Also, the pIC50 in assay [3] is 3.36.
As to `Nc1ncnc2c1ncn2C1C=CC(=O)C1` (centres unmarked) [4-(9-adeninyl)-2-cyclopenten-1-one], the “fragmentation of DNA” value was “confirmed” in assay [4] (HL-60, 10 μM final concentration) and “confirmed” in assay [4] (HL-60, 30 μM final concentration). Further, in assay [3], the pIC50 is 4.65.
For `O=C[C@H](O)[C@@H](O)[C@H](O)CO` [D(+)-xylose], in assay [5], the “apoptosis-inducing activity of the non-heated solution” value is reported as “no apoptosis-inducing activity”.
Regarding `NC(CCC(=O)NC(CSC1CC(=O)CC1O)C(=O)NCC(=O)O)C(=O)O` (single isomer, unassigned) [peak 1], the “apoptosis-inducing activity / cancer cell growth suppressing activity” value in assay [5] is “noted”.
On to `O=C1C=CC(O)C1O` (centres unmarked) [4,5-dihydroxy-2-cyclopenten-1-one], for which the “cancer cell growth suppressing activity and apoptic body formation” value in assay [5] (HL-60, MTT method of Example 4-(2), sample in 50% ethanol, 16 hours) was “confirmed”.
Consider `O=C[C@@H](O)[C@H](O)[C@H](O)CO` [D-(−)-arabinose], for which, in assay [5], the “apoptosis-inducing activity of the non-heated solution” value is given as “no apoptosis-inducing activity”.
The same measure, in the same setting: the same measure for `O=C[C@H](O)[C@@H](O)[C@@H](O)CO` [L(+)-arabinose]: “no apoptosis-inducing activity”.
With `NC(CCC(=O)NC(CSC1CC(=O)CC1O)C(=O)NCC(=O)O)C(=O)O` (single isomer, unassigned) [peak 3], the “apoptosis-inducing activity / cancer cell growth suppressing activity” value in assay [5] was “noted”.
With `O=CC[C@H](O)[C@H](O)CO` [2-deoxy-D-ribose], in assay [5], the “apoptosis-inducing activity of the non-heated solution” value is reported as “no apoptosis-inducing activity”.
Still for that read-out and setting: the same measure for `O=C[C@H](O)[C@H](O)[C@H](O)CO` [non-heated aqueous solution of D-ribose, D-ribose]: “no apoptosis-inducing activity”.
